A short description of data set [1]: Long term solid stability at −15° C. (purity by UPLC). As to conditions: for Purity % by UP LC: solid state, −15° C. (freezer). Type of data set: physicochemical. As to the method:
The compound from this vial was assessed for purity by UPLC at two different timepoints: Day 0 and Day 93 (3 months).

A short description of data set [2]: PK study in rats (plasma). Type of data set: in vivo. As to conditions: rats; for half-life: plasma.
Data set [3] relates to cisplatin induced acute kidney injury (AKI) mouse model. Kind of data set: Cisplatin induced kidney injury model in mice. The data set is classed as in vivo, BALB/c female mice. The protocol: The study was performed using protocols approved by the Institutional Animal Ethics Committee (IAEC) based on CPCSEA guidelines for animal care and use. BALB/c female mice of 6-8 weeks age were divided into 5 groups with each group containing 6 members. Animal room environment were monitored for temperature and relative humidity twice a day. The temperature range was 22° C.±3° C. and the humidity range was 30-70%, although the upper range for humidity may be exceeded during room cleaning. Animals were housed in IVC systems and provided with cycles of 12 hours of light and 12 hours of darkness through the study. SDS Feed (M/s. SDS diets services) and autoclaved drinking water was provided ad libitum.
The vehicle for cisplatin was 0.9% saline while the vehicle for compound 100 was PBS at pH 6. The compound 100 formulations were prepared just prior to doing each time. The study was performed in 5 groups.
Animals were acclimatized prior to the study. Pretreatment with compound 100 was administered for 3 days before cisplatin dosing. Animals were weighed and administered vehicle in group 1 and cisplatin was administered at a single dose of 25 mg/kg to groups 2, 3, 4 and 5 intraperitonially on day-3 of the study. The oral dose groups (groups 3-5) were dosed with compound 100 twice daily for 6 days (3 days pre-dose and 3 days post-dose cisplatin).
Blood samples were collected at end of the study (12 h, post last dose terminal sampling, cardiac puncture) in 2 ml Eppendorf tubes, and serum was separated and stored at −20° C. for clinical chemistry analysis.
All animals survived and were sacrificed at end of the study (12 hours post last test compound dose) with an overdose of CO2. […] Serum creatinine and blood urea nitrogen (BUN) was determined using a clinical chemistry analyzer on the final day of blood collection and the results are graphically illustrated for groups 1-5 in FIG. 13 and FIG. 14, respectively.

Data set [4] can be described thus: Distribution in kidney and liver tissue after 24 hrs in rats. As to conditions: compared with nicotinic acid.
The test system of data set [5] is human hepatocytes. Kind of data set: Human hepatocyte clearance. Type of data set: in vitro ADME. The essentials: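 Cryopreserved human hepatocytes at a 2 million cell working stock mixed 1:1 with 2 μM compound working stock at 37 °C, in duplicate. Samples quenched in acetonitrile with internal standard at 0, 15, 30, 60 and 90 min, then analysed by LC-MS/MS.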
Data set [6] can be described thus: Human plasma protein binding (RED dialysis). As to conditions: human, plasma, human plasma, 10 μM, 5 hours dialysis. In outline: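 Compound spiked at 10 μM final into human plasma, dialysed against PBS by RED for 5 h at 37° C with shaking, in duplicate. Both chambers quantified by LC-MS/MS after acetonitrile precipitation; % unbound = 100×buffer/plasma concentration, recovery checked against T0 sample.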

Setting [7] is: rat, Group 2: compound 100 83 mg/kg IV, analyte compound 100 in plasma.
[8] abbreviates: mice, 50, 250 and 500 mg/kg PO twice daily for 6 days, cisplatin 25 mg/kg IP, p<0.05.

Each structure is given as a SMILES string. Where two headings read alike, the source gives them in different places.

As to `O=C(OC1O[C@H](CO)[C@@H](O)[C@H]1O)c1cccnc1` (stereo partly drawn) [Compound 100, (3R, 4S, 5R)-3,4-dihydroxy-5-(hydroxymethyl) tetrahydrofuran-2-yl nicotinate], the “Purity % by UP LC” value in data set [1] (Day 0) was determined as 98.92%. For the same molecule, the “Purity % by UP LC” value in data set [1] (Day 93) came out at 99.62%. Moreover, in data set [1] (stored at −15° C. for up to three months), the “solid state stability (in words)” value is recorded as “stable”. Besides, the half-life in data set [2] (rat, iv, 83 mg/kg, Group 2: compound 100 83 mg/kg IV, analyte compound 100 in plasma, read-out: T1/2 (converted)) is 1.01 ± 0.22 h. In data set [2] (rat, iv, 83 mg/kg, delivered by IV, read-out: T1/2 of degradation in rat plasma (converted)), the half-life is 1 h. For the same molecule, in data set [2] (rat, po, 415 mg/kg, oral, said to be consistent with hepatocyte stability in vitro, read-out: T1/2 following oral administration), the half-life fell in the range of 5 to 6 h. Also, in data set [2] (setting [7]), the Cmax – broadly, the highest concentration seen after dosing – is 188 ± 97.2 µM; the Tmax (as a rule, the time from dosing to the highest level) was 8.34 ± 5.76 min; the clearance (usually the rate of elimination divided by the concentration) was 37.7 mL/min/kg. The AUC(0-t) in data set [2] (rat, Group 2: compound 100 83 mg/kg IV, analyte compound 100 in plasma, read-out: AUC0-1) turned out to be 148 ± 34 µM·h. Besides, the Vd in data set [2] (rat, Group 2: compound 100 83 mg/kg IV, analyte compound 100 in plasma, read-out: Vss) was determined as 3.4 ± 1.62 L/kg. In addition, in data set [2], the “in vivo pharmacology compared with nicotinic acid (conclusion)” value is “superior in vivo pharmacology than nicotinic acid with a longer half-life, lower maximal concentration (C), better bioavailability and has a depot effect in the kidney and liver”. The “IV pharmacokinetics profile (in words)” value in data set [2] (IV) is on record as “biphasic rapid distribution followed by elimination”. Besides, in data set [3] (setting [8]), the “BUN compared to group 2 (cisplatin only)” value is reported as “significant reduction” and the “serum creatinine compared to group 2 (cisplatin only)” value was “significant reduction”. Besides, the “nephroprotection (conclusion)” value in data set [3] (mice, all three oral doses) was “nephroprotection”. In data set [4], the “delivery of nicotinic acid into the tissues” value is on record as “more efficiently than nicotinic acid”.

Consider `COC(=O)[C@@H](C)NP(=O)(OC[C@H]1OC(OC(=O)c2cccnc2)[C@H](O)[C@@H]1O)Oc1ccccc1` (stereo partly drawn) [Compound 101, (3R, 4S, 5R)-3,4-dihydroxy-5-(((((1-methoxy-1-oxopropan-2-yl)amino)(phenoxy)phosphoryl)oxy)methyl)tetrahydrofuran-2-yl nicotinate], for which the “Remarks (clearance class)” value in data set [5] was “high clearance and High”. Also, the fraction unbound (usually the share of the substance not bound to proteins or other matrix) at 5 h, 10 μM was 0.306 in data set [6] (% Bound in plasma), 0.306 in data set [6] (% Unbound in plasma) and 0.31 in data set [6] (Fraction unbound).

The values are drawn from patent US12168673B2 (Mitopower, Inc., priority 2022, dated 2024).
